Experimental data reported in PMC6576746, “Rational discovery of dual-indication multi-target PDE/Kinase inhibitor for precision anti-cancer therapy using structural systems pharmacology” (PLoS Computational Biology, 2019).

Tests used:
Experiment in all cases: biochemical
Set-up in all cases: DiscoverX KinomeScan competition binding assay across human kinases; per cent of control at 10 and 100 uM
EGFR(T790M) = EGFR(T790M) (Homo sapiens, UniProt P00533, T790M); settings: competition binding, % of control
Chain of EGFR(T790M) (P00533 whole entry T790M): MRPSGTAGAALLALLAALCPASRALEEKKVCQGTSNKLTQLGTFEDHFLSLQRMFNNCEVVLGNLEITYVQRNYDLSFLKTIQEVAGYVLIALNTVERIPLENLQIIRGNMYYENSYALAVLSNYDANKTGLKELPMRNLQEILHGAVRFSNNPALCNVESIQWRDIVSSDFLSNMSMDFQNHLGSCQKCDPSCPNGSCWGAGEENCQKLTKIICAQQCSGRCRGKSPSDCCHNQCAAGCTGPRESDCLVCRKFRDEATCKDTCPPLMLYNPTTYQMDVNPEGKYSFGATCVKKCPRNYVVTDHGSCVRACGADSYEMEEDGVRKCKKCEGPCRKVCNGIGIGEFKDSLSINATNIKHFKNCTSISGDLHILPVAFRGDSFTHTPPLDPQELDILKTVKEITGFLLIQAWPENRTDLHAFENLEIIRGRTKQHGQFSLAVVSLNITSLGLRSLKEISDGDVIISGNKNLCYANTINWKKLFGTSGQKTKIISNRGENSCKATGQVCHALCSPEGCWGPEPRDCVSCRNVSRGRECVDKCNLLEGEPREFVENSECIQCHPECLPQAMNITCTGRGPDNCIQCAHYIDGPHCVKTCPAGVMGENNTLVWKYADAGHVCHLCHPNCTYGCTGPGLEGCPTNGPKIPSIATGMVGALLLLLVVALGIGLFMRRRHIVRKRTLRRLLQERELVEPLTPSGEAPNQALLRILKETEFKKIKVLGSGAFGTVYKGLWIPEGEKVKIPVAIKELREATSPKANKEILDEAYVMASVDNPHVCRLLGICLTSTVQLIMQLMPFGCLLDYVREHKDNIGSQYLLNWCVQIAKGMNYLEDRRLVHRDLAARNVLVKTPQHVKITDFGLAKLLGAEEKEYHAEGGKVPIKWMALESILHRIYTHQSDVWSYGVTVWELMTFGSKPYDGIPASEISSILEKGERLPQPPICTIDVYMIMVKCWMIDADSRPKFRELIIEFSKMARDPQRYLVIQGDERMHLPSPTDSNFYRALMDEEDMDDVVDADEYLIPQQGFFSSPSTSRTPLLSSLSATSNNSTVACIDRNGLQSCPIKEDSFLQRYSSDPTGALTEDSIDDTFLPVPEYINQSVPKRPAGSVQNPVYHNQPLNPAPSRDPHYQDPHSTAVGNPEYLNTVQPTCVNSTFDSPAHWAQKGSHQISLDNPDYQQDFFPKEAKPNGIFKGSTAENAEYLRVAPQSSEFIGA
Procedure, shortened: (§1)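 KinomeScan competition binding was run across a human kinase panel at 10 μM and 100 μM levosimendan. Results are %control = (test − positive control)/(negative control − positive control) × 100.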

MYO3A = MYO3A (Homo sapiens, UniProt Q8NEV4); settings: competition binding, % of control; read-out: Percent Control (100 uM Levosimendan)
Procedure, shortened: as §1

IKK-beta = target: T1, IKK-beta (Homo sapiens, UniProt O14920); settings: competition binding, % of control; read-out: Percent Control (100 uM Levosimendan)
T1 construct: gene IKBKB
T1 sequence (O14920 whole entry): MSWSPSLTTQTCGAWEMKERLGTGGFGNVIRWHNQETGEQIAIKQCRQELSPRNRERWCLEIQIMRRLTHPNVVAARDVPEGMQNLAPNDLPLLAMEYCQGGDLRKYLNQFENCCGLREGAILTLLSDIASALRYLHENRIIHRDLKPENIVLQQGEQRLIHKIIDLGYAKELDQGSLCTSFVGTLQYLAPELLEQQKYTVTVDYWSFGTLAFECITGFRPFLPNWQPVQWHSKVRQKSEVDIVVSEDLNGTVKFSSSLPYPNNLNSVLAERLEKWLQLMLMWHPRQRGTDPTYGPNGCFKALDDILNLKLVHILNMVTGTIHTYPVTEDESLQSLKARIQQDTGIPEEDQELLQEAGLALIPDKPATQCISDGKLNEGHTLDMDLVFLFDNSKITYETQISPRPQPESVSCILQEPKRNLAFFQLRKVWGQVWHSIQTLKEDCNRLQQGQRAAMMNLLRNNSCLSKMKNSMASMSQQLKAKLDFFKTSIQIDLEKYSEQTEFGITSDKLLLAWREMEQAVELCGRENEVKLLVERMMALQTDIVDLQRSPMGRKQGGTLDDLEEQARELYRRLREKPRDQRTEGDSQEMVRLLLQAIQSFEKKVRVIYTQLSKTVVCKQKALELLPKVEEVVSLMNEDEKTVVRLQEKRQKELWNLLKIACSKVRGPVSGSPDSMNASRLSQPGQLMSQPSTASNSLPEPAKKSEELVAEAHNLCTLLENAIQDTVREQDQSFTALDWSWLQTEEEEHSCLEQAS
Procedure, shortened: as §1

CSNK1D = CSNK1D (Homo sapiens, UniProt P48730); settings: competition binding, % of control; read-out: Percent Control (100 uM Levosimendan)
Procedure, shortened: as §1

TNNI3K = TNNI3K (Homo sapiens, UniProt Q59H18); settings: competition binding, % of control; read-out: Percent Control (100 uM Levosimendan)
Procedure, shortened: as §1

PIK4CB = target: T2, PIK4CB (Homo sapiens, UniProt Q9UBF8); settings: competition binding, % of control; read-out: Percent Control (100 uM Levosimendan)
T2 construct: gene PI4KB
Procedure, shortened: as §1

INSR = INSR (Homo sapiens, UniProt P06213); settings: competition binding, % of control; read-out: Percent Control (100 uM Levosimendan)
Procedure, shortened: as §1

ERK1 = target: T3, ERK1 (Homo sapiens, UniProt P27361); settings: competition binding, % of control; read-out: Percent Control (100 uM Levosimendan)
T3 construct: gene MAPK3
Procedure, shortened: as §1

CDKL2 = CDKL2 (Homo sapiens, UniProt Q92772); settings: competition binding, % of control; read-out: Percent Control (100 uM Levosimendan)
Procedure, shortened: as §1

PKAC-alpha = target: T4, PKAC-alpha (Homo sapiens, UniProt P17612); settings: competition binding, % of control; read-out: Percent Control (100 uM Levosimendan)
T4 construct: gene PRKACA
Procedure, shortened: as §1

MEK6 = target: T5, MEK6 (Homo sapiens, UniProt P52564); settings: competition binding, % of control; read-out: Percent Control (100 uM Levosimendan)
T5 construct: gene MAP2K6
Procedure, shortened: as §1

BMPR1A = BMPR1A (Homo sapiens, UniProt P36894); settings: competition binding, % of control; read-out: Percent Control (100 uM Levosimendan)
Procedure, shortened: as §1

CDKL1 = CDKL1 (Homo sapiens, UniProt Q00532); settings: competition binding, % of control
Chain of CDKL1 (Q00532 whole entry): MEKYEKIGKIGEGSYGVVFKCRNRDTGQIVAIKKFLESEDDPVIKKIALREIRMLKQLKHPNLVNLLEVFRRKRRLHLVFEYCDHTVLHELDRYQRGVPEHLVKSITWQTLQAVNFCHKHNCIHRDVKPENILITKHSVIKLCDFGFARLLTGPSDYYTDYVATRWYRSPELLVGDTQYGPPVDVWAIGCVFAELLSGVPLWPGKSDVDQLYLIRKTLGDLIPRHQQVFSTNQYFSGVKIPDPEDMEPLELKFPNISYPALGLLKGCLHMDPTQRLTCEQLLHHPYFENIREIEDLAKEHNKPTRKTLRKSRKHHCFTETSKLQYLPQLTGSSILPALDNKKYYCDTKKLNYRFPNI
Procedure, shortened: as §1

PIKFYVE = PIKFYVE (Homo sapiens, UniProt Q9Y2I7); settings: competition binding, % of control; read-out: Percent Control (100 uM Levosimendan)
Procedure, shortened: as §1

EGFR = EGFR (Homo sapiens, UniProt P00533); settings: competition binding, % of control
Chain of EGFR (P00533 whole entry): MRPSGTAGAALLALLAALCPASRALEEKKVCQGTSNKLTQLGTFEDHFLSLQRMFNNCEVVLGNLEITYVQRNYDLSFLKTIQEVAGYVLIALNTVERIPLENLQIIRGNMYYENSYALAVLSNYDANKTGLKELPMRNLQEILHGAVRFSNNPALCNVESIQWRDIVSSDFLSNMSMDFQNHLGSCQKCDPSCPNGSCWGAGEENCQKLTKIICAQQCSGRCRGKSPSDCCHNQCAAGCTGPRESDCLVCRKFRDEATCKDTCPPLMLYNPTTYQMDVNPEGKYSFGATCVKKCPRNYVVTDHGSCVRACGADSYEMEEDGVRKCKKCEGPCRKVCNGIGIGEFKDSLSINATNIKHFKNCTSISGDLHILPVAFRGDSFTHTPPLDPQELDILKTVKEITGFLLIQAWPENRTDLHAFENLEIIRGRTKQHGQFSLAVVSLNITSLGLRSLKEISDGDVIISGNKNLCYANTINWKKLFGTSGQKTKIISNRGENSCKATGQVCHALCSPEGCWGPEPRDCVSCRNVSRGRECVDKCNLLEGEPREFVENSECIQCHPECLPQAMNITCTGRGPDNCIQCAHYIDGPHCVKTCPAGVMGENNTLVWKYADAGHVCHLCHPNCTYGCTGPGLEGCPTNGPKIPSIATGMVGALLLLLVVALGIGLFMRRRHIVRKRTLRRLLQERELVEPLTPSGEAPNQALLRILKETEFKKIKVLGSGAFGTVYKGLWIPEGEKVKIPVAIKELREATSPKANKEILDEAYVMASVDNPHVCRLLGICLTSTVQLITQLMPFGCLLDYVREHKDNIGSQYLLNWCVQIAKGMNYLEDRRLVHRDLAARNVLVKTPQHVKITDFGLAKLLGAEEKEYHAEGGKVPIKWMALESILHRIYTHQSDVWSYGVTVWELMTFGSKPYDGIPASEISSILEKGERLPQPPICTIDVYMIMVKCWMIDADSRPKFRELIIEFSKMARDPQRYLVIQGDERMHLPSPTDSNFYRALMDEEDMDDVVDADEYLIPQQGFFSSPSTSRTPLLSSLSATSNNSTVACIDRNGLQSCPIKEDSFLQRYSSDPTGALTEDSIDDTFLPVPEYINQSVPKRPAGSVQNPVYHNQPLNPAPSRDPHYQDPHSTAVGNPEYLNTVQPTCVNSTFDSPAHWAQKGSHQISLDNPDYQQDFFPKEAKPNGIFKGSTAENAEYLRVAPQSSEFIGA
Procedure, shortened: as §1

YANK3 = target: T6, YANK3 (Homo sapiens, UniProt Q86UX6); settings: competition binding, % of control; read-out: Percent Control (100 uM Levosimendan)
T6 construct: gene STK32C
Procedure, shortened: as §1

MAP3K4 = MAP3K4 (Homo sapiens, UniProt Q9Y6R4); settings: competition binding, % of control; read-out: Percent Control (100 uM Levosimendan)
Procedure, shortened: as §1

MAPKAPK5 = MAPKAPK5 (Homo sapiens, UniProt Q8IW41); settings: competition binding, % of control; read-out: Percent Control (100 uM Levosimendan)
Procedure, shortened: as §1

ROCK2 = ROCK2 (Homo sapiens, UniProt O75116); settings: competition binding, % of control
Chain of ROCK2 (O75116 whole entry): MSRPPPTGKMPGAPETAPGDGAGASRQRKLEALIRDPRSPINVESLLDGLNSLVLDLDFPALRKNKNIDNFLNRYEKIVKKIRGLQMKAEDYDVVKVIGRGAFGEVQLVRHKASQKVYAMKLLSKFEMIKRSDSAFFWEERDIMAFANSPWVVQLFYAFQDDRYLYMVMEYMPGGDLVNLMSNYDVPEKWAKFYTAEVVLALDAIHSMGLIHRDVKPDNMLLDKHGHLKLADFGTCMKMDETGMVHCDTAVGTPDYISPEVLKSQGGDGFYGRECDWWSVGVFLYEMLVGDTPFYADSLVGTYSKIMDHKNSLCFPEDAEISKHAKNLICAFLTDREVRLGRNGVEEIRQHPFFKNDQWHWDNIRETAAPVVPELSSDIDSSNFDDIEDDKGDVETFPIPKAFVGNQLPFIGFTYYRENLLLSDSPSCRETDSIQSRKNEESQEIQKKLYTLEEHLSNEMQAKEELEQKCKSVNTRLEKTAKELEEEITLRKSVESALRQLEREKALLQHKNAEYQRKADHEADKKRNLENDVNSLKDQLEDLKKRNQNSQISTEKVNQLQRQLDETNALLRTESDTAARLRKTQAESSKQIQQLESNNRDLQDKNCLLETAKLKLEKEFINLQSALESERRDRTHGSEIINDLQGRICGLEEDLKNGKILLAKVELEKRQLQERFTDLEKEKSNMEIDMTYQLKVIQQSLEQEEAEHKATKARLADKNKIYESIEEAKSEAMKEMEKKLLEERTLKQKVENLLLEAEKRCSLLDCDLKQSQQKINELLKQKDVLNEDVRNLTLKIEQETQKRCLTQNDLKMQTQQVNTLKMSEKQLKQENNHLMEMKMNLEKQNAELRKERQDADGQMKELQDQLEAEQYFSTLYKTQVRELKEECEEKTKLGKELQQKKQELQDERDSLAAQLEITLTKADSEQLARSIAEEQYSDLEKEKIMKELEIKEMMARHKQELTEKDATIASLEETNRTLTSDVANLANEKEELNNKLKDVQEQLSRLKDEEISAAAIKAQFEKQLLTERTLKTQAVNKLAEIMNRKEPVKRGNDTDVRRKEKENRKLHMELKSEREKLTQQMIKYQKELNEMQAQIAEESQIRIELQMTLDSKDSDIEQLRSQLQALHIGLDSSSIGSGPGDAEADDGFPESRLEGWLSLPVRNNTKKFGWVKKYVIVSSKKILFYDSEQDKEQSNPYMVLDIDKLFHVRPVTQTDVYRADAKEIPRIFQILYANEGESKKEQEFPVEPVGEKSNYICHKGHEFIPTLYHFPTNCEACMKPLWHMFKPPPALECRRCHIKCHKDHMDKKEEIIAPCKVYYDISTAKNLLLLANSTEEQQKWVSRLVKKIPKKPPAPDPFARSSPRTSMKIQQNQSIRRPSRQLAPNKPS
Procedure, shortened: as §1

[1] = read-out: Percent Control (10 uM Levosimendan)
[2] = read-out: Percent Control (100 uM Levosimendan)

remaining binding at 10 µM (EGFR(T790M); [1]): 88%
remaining binding at 100 µM (EGFR(T790M); [2]): 31%
remaining binding at 100 µM (MYO3A): 97%
remaining binding at 100 µM (IKK-beta): 74%
remaining binding at 100 µM (CSNK1D): 84%
remaining binding at 100 µM (TNNI3K): 95%
remaining binding at 100 µM (PIK4CB): 100%
remaining binding at 100 µM (INSR): 76%
remaining binding at 100 µM (ERK1): 87%
remaining binding at 100 µM (CDKL2): 100%
remaining binding at 100 µM (PKAC-alpha): 94%
remaining binding at 100 µM (MEK6): 100%
remaining binding at 100 µM (BMPR1A): 93%
remaining binding at 10 µM (CDKL1; [1]): 88%
remaining binding at 100 µM (CDKL1; [2]): 47%
remaining binding at 100 µM (PIKFYVE): 57%
remaining binding at 10 µM (EGFR; [1]): 78%
remaining binding at 100 µM (EGFR; [2]): 28%
remaining binding at 100 µM (YANK3): 73%
remaining binding at 100 µM (MAP3K4): 58%
remaining binding at 100 µM (MAPKAPK5): 100%
remaining binding at 10 µM (ROCK2; [1]): 49%
remaining binding at 100 µM (ROCK2; [2]): 4.9%
SMILES: C[C@@H]1CC(=O)NN=C1c1ccc(NN=C(C#N)C#N)cc1 [levosimendan]
